Data from patent publication US6030823A, “D-aminoacylase” (Daicel Chemical Industries, Ltd., priority 1998, dated 2000).

These compounds were tested on D-aminoacylase derived from Sebekia benihana IFO14309 (assay: Substrate specificity of the aminoacylase). Settings: 20 mM substrate, 50 mM Tris-HCl pH 7.5, 30° C., 5 min.
Format: biochemical
Experimental: The substrate specificity of the aminoacylase was examined using N-acetyl-D-methionine, N-acetyl-D-alanine, N-acetyl-D-aspartic acid, N-acetyl-D-leucine, N-acetyl-D-phenylalanine, N-acetyl-D-tryptophan, N-acetyl-D-valine, N-acetyl-L-leucine, N-acetyl-L-methionine, and N-acetyl-L-valine as substrates. The enzyme activity was assayed as follows. A 0.050-ml aliquot of an enzyme solution was added to 0.950 ml of 20 mM N-acetyl-D(or L)-amino acid in 50 mM Tris-HCl buffer (pH 7.5) and incubated at 30° C. for 5 min. The reaction was then stopped by adding 0.50 ml of a TCA solution to the reaction mixture. The relative activity is shown in Table 5, taking the activity for N-acetyl-L-methionine as 100%.

Q: Which Relative activity does the source give for `CC(=O)N[C@H](Cc1c[nH]c2ccccc12)C(=O)O` [N-Ac-D-Trp, N-acetyl-D-tryptophan] here?
A: Its Relative activity is 64%.

Q: With `CC(=O)N[C@H](CC(N)=O)C(=O)O` [N-Ac-D-Asn, N-acetyl-D-asparagine] as the compound, how does the Relative activity read?
A: The Relative activity was 1.4%.

Q: `CC(=O)N[C@@H](C(=O)O)C(C)C` [N-Ac-D-Val, N-acetyl-D-valine] was tested. Which Relative activity did it give?
A: The Relative activity was 33%.

Q: For `CC(=O)N[C@H](C(=O)O)C(C)C` [N-Ac-L-Val, N-acetyl-L-valine], which Relative activity is on record?
A: Its Relative activity is 0%.

Q: How did the Relative activity turn out when `CC(=O)N[C@H](CC(C)C)C(=O)O` [N-Ac-D-Leu, N-acetyl-D-leucine] was run?
A: The Relative activity was 255%.

Q: With `CSCC[C@H](NC(C)=O)C(=O)O` [N-Ac-L-Met, N-acetyl-L-methionine] as the compound, how does the Relative activity read?
A: Its Relative activity is 0%.
